In US7626031B2, “Substituted 3-(diarylmethylene)indolin-2-ones and methods of their use” (Symphony Evolution, Inc., priority 2002, dated 2009):

Experiments:
[1] = target: T1, KDR (baculovirus expressed human KDR kinase domain D807-V1356) (Homo sapiens, UniProt P35968); assay: biochemical
T1 construct: human KDR kinase domain D807-V1356; host or cells: baculovirus expression system
Procedure, shortened: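 Baculovirus human KDR kinase domain (D807–V1356) with ATP near its KM; 10-point dose-response, 4 h at ambient temperature. Activity taken as percent ATP remaining, detected by luciferase–luciferin chemiluminescence.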

[2] = target: EphA2 (Homo sapiens, UniProt P29317); assay: Kinase assay, EphA2 (33P-ATP incorporation or luciferase-coupled ATP consumption); format: biochemical
Sequence of EphA2 (P29317 24-976, species assumed): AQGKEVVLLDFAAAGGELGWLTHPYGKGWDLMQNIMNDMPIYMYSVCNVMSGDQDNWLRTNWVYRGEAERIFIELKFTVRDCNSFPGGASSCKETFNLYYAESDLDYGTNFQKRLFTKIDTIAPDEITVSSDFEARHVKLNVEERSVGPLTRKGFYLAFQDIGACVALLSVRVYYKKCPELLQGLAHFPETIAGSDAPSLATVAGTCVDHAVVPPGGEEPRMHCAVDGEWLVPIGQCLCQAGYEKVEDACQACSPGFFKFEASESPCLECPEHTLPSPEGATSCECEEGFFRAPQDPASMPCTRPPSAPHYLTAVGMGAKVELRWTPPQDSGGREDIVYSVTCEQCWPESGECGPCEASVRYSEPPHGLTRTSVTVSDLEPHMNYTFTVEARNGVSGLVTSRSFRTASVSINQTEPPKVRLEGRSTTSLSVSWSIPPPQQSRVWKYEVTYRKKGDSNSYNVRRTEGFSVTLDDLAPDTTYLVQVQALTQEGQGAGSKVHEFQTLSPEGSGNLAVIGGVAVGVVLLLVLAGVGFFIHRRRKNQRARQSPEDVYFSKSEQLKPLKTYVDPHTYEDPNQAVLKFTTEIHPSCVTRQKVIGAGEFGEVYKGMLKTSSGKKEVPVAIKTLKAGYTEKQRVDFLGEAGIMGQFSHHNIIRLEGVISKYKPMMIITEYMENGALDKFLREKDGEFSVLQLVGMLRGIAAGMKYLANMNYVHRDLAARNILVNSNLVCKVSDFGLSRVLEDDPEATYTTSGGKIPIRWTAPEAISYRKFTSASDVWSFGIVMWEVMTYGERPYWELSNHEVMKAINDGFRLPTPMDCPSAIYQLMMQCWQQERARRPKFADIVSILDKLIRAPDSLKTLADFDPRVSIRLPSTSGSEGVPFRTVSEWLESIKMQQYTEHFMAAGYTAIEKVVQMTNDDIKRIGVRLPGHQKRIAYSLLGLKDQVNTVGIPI
Procedure, shortened: (§1)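 Radiometric format: γ-33P ATP incorporation into plate-immobilized myelin basic protein, enzyme 10 nM or 20 nM, 10 μM or 30 μM unlabeled ATP, 1 h at room temperature, 1% DMSO, scintillation counting; alternatively luciferase-measured ATP consumption with pEY substrate. ATP set near each kinase's KM; 10-point dose-response.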

[3] = target: Flt-1 (Homo sapiens, UniProt P17948); assay: Kinase assay, Flt-1 (33P-ATP incorporation or luciferase-coupled ATP consumption); format: biochemical; conditions: read-out: Flt1 IC50
Experimental: (§2) Kinase assays were performed by measurement of incorporation of γ-^33P ATP into immobilized myelin basic protein (MBP). […] Plates were washed 3× with 100 μl TBS. […] Compound dilutions were performed in DMSO and added to assay wells to a final DMSO concentration of 1%. Each data point was measured in duplicate, and at least two duplicate assays were performed for each individual compound determination. Enzyme was added to final concentrations of 10 nM or 20 nM, for example. A mixture of unlabeled ATP and γ-^33P ATP was added to start the reaction (2×10^6 cpm of γ-^33P ATP per well (3000 Ci/mmole) and either 10 μM or 30 μM unlabeled ATP, typically. The reactions were carried out for 1 hour at room temperature with shaking. Plates were washed 7× with TBS, followed by the addition of 50 μl/well scintillation fluid (Wallac). Plates were read using a Wallac Trilux counter. This is only one format of such assays, various other formats are possible, as known to one of ordinary skill in the art.
(§3) Tyrosine kinase activity is determined by 1) measurement of kinase-dependent ATP consumption by in the presence of a generic substrate such as, polyglutamic acid, tyrosine, 4:1 (pEY), by luciferase/luciferin-mediated chemiluminescence or; 2) incorporation of radioactive phosphate derived from ^33P-ATP into a generic substrate which has been adsorbed onto the well surface of polystyrene microtiter plates. Phosphorylated substrate products are quantified by scintillation spectrometry.
(§4) Kinase activity and compound inhibition are investigated using one or more assay formats. The ATP concentrations for each assay are selected to be close to the Michaelis-Menten constant (KM) for each individual kinase. Dose-response experiments are performed at 10 different inhibitor concentrations in a 384-well plate format. […] Exemplary kinase assays are described below. KDR Assay

[4] = target: EGFR (Homo sapiens, UniProt P00533); assay: Kinase assay, EGFR (33P-ATP incorporation or luciferase-coupled ATP consumption); format: biochemical
Procedure, shortened: as §1

[5] = target: FGFR1 (Homo sapiens, UniProt P11362); assay: Kinase assay, FGFR1 (33P-ATP incorporation or luciferase-coupled ATP consumption); format: biochemical
Experimental: as §2, §3, §4

[6] = target: PDGFR alpha (Homo sapiens, UniProt P16234); assay: Kinase assay, PDGFR alpha (33P-ATP incorporation or luciferase-coupled ATP consumption); format: biochemical; conditions: read-out: PDGF-R-A IC50
Sequence of PDGFR alpha (P16234 24-1089): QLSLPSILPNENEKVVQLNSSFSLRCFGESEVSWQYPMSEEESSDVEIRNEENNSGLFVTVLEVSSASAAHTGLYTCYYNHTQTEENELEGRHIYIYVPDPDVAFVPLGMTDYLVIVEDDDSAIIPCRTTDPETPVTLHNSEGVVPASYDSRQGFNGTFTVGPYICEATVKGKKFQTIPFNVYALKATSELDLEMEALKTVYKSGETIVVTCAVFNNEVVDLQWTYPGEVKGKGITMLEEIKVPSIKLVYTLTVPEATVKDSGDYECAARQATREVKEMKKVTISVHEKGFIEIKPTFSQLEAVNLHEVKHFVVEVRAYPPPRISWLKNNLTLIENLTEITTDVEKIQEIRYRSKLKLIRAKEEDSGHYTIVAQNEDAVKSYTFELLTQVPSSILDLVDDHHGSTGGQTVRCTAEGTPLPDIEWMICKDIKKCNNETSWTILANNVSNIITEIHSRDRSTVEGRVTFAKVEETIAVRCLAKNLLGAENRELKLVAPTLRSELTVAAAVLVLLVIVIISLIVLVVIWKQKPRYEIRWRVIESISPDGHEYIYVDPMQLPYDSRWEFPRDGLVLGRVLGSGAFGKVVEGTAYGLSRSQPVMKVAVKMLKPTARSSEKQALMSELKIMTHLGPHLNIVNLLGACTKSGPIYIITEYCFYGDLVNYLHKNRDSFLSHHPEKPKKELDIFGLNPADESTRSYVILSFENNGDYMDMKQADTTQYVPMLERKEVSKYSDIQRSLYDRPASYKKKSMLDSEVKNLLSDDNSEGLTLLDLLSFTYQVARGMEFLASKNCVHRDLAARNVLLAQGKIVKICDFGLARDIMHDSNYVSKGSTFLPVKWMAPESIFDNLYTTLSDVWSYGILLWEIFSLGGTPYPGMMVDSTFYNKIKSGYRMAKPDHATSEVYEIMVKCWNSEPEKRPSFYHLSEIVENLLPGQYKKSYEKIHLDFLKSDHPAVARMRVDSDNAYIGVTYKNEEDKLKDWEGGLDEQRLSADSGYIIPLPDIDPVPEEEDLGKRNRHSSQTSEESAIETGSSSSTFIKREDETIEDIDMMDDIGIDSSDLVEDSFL
Procedure, shortened: as §1

[7] = target: Fyn (Homo sapiens, UniProt P06241); assay: Kinase assay, Fyn; format: biochemical
Sequence of Fyn (P06241 whole entry, species assumed): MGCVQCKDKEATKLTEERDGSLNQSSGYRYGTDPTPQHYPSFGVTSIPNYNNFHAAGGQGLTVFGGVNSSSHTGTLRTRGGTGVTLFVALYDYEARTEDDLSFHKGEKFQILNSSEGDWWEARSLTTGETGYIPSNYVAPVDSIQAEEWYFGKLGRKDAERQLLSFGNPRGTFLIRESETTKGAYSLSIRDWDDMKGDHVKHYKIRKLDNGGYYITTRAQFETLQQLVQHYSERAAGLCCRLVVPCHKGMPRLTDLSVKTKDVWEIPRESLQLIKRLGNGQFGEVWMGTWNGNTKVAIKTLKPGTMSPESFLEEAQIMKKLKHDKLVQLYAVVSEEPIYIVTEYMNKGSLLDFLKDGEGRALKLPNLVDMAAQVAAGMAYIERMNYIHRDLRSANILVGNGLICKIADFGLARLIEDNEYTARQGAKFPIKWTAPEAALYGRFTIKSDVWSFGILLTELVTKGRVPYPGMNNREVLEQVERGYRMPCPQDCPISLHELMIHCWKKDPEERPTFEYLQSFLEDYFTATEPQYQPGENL
Experimental: as §4

[8] = target: IRK (Homo sapiens, UniProt P06213); assay: Kinase assay, IRK; format: biochemical
Sequence of IRK (P06213 28-1382): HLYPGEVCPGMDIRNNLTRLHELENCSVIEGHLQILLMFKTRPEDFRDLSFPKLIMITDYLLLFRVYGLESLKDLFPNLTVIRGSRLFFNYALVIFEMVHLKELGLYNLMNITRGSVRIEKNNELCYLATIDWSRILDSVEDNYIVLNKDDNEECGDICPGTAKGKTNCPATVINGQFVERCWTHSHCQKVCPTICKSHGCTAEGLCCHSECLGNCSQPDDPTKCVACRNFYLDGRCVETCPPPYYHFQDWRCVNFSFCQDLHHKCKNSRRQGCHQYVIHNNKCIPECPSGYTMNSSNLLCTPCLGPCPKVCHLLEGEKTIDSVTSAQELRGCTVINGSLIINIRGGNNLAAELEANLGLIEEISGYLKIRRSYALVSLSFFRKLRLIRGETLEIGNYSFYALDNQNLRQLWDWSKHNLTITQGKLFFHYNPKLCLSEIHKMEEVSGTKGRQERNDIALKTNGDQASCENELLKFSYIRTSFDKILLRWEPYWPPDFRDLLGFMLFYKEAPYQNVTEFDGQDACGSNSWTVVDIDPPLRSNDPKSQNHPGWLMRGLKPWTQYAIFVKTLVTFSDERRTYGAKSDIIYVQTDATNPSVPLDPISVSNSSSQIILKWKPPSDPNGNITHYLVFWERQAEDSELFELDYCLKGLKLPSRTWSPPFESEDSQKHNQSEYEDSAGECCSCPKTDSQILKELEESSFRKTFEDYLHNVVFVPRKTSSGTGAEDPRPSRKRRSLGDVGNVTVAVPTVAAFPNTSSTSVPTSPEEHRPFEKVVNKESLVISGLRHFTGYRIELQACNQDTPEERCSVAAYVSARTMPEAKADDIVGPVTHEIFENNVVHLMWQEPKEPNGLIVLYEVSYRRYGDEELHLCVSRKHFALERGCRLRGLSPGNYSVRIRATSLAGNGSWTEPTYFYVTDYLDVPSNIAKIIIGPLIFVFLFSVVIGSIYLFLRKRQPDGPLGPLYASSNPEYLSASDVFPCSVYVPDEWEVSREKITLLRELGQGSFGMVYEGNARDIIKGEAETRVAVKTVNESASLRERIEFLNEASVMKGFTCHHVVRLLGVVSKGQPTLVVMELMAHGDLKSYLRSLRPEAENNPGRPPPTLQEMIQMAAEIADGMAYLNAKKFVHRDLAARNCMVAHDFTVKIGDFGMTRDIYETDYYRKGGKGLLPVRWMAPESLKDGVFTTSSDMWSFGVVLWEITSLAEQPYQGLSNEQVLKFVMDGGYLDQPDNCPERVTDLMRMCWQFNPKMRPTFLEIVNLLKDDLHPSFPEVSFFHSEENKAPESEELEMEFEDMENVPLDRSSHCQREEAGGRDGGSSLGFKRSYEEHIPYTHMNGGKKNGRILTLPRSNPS
Experimental: as §4

T1 sequence (P35968 807-1356): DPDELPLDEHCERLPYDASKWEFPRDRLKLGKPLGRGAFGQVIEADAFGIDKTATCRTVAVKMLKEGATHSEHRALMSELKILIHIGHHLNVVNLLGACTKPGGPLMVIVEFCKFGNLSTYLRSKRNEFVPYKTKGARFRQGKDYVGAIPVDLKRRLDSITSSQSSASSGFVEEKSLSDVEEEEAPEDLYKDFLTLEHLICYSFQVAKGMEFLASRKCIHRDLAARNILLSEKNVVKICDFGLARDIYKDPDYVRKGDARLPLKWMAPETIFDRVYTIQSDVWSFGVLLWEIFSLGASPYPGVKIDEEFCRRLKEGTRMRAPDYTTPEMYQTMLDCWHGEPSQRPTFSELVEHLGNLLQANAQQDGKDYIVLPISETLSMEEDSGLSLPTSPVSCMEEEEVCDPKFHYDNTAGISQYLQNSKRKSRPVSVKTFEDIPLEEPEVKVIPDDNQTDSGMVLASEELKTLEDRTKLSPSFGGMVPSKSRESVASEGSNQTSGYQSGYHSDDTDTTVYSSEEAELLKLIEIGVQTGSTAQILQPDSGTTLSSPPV

Row | IC50 [1] | IC50 [2] | IC50 [3] | IC50 [4] | IC50 [5] | IC50 [6] | IC50 [7] | IC50 [8] | SMILES
1 | < 50 nM | 500 to 5000 nM | 50 to 500 nM | 500 to 5000 nM | < 50 nM | < 50 nM | < 50 nM | 500 to 5000 nM | COCCN1CCC(Nc2ccc3c(c2)/C(=C(\c2cccc(Cl)c2)c2ncc[nH]2)C(=O)N3)CC1 [Entry 40, (3Z)-3-[(3-chlorophenyl)(1H-imidazol-2-yl)methylidene]-5-({1-[2-(methyloxy)ethyl]piperidin-4-yl}amino)-1,3-dihydro-2H-indol-2-one]
2 | < 50 nM | 50 to 500 nM | < 50 nM | 50 to 500 nM | < 50 nM | < 50 nM | < 50 nM | 50 to 500 nM | CCN1CCC(Nc2ccc3c(c2)/C(=C(\c2cccc(Cl)c2)c2nc4ccccc4[nH]2)C(=O)N3)CC1 [Entry 27, (3Z)-3-[1H-benzimidazol-2-yl(3-chlorophenyl)methylidene]-5-[(1-ethylpiperidin-4-yl)amino]-1,3-dihydro-2H-indol-2-one]
3 | < 50 nM | 500 to 5000 nM | 50 to 500 nM | 50 to 500 nM | < 50 nM | < 50 nM | < 50 nM | > 5000 nM | COCCN1CCC(Nc2ccc3c(c2)/C(=C(\c2cc(F)cc(F)c2)c2nc4ccccc4[nH]2)C(=O)N3)CC1 [Entry 42]
4 | < 50 nM | 500 to 5000 nM | 50 to 500 nM | 50 to 500 nM | 50 to 500 nM | < 50 nM | < 50 nM | 500 to 5000 nM | COCCN1CCC(Nc2ccc3c(c2)/C(=C(\c2cccc(F)c2)c2nc4ccccc4[nH]2)C(=O)N3)CC1 [Entry 46, (3Z)-3-[1H-benzimidazol-2-yl(3-fluorophenyl)methylidene]-5-({1-[2-(methyloxy)ethyl]piperidin-4-yl}amino)-1,3-dihydro-2H-indol-2-one]
5 | < 50 nM | 500 to 5000 nM | 500 to 5000 nM | 50 to 500 nM | 50 to 500 nM | < 50 nM | < 50 nM | 500 to 5000 nM | COCCN1CCC(Oc2ccc3c(c2)/C(=C(\c2cccc(Cl)c2)c2nc4ccccc4[nH]2)C(=O)N3)CC1 [Entry 37, (3Z)-3-[1H-benzimidazol-2-yl(3-chlorophenyl)methylidene]-5-({1-[2-(methyloxy)ethyl]piperidin-4-yl)oxy)-1,3-dihydro-2H-indol-2-one]
6 | < 50 nM | 500 to 5000 nM | 50 to 500 nM | 50 to 500 nM | < 50 nM | < 50 nM | < 50 nM | > 5000 nM | CCN1CCC(Nc2ccc3c(c2)/C(=C(\c2cccc(Cl)c2)c2ncc[nH]2)C(=O)N3)CC1 [Entry 48, (3Z)-3-[(3-chlorophenyl)(1H-imidazol-2-yl)methylidene]-5-[(1-ethylpiperidin-4-yl)amino]-1,3-dihydro-2H-indol-2-one]
7 | < 50 nM | 500 to 5000 nM | 500 to 5000 nM | 500 to 5000 nM | 50 to 500 nM | 50 to 500 nM | 50 to 500 nM | 500 to 5000 nM | CCN1CCC(Oc2ccc3c(c2)/C(=C(\c2cccc(Cl)c2)c2ncc[nH]2)C(=O)N3)CC1 [Entry 44, (3Z)-3-[(3-chlorophenyl)(1H-imidazol-2-yl)methylidene]-5-[(1-ethylpiperidin-4-yl)oxy]-1,3-dihydro-2H-indol-2-one]
8 | < 50 nM | 500 to 5000 nM | 500 to 5000 nM | 500 to 5000 nM | 50 to 500 nM | < 50 nM | < 50 nM | 500 to 5000 nM | COCCN1CCC(Oc2ccc3c(c2)/C(=C(\c2cc(F)cc(F)c2)c2nc4ccccc4[nH]2)C(=O)N3)CC1 [Entry 36, (3Z)-3-[1H-benzimidazol-2-yl(3,5-difluorophenyl)methylidene]-5-({1-[2-(methyloxy)ethyl]piperidin-4-yl}oxy)-1,3-dihydro-2H-indol-2-one]
9 | < 50 nM | 500 to 5000 nM | 500 to 5000 nM | 500 to 5000 nM | 50 to 500 nM | < 50 nM | 50 to 500 nM | 500 to 5000 nM | COCCN1CCC(Nc2ccc3c(c2)/C(=C(\c2ccc(F)cc2)c2nc4ccccc4[nH]2)C(=O)N3)CC1 [Entry 47, (3Z)-3-[1H-benzimidazol-2-yl(4-fluorophenyl)methylidene]-5-({1-[2-(methyloxy)ethyl]piperidin-4-yl}amino)-1,3-dihydro-2H-indol-2-one]
10 | < 50 nM | 500 to 5000 nM | < 50 nM | 50 to 500 nM | < 50 nM | < 50 nM | < 50 nM | 500 to 5000 nM | CCN1CCC(Nc2ccc3c(c2)/C(=C(\c2cccc(OC)c2)c2nc4ccccc4[nH]2)C(=O)N3)CC1 [Entry 26, (3Z)-3-{1H-benzimidazol-2-yl [3-(methyloxy)phenyl]methylidene}-5-[(1-ethylpiperidin-4-yl)amino]-1,3-dihydro-2H-indol-2-one]
11 | < 50 nM | 500 to 5000 nM | 50 to 500 nM | 500 to 5000 nM | < 50 nM | < 50 nM | < 50 nM | 500 to 5000 nM | CCN1CCC(Oc2ccc3c(c2)/C(=C(\c2cccc(Cl)c2)c2nc4ccccc4[nH]2)C(=O)N3)CC1 [Entry 35, (3Z)-3-[1H-benzimidazol-2-yl(3-chlorophenyl)methylidene]-5-[(1-ethylpiperidin-4-yl)oxy]-1,3-dihydro-2H-indol-2-one]
12 | < 50 nM | 500 to 5000 nM | 50 to 500 nM | 500 to 5000 nM | 50 to 500 nM | < 50 nM | < 50 nM | 500 to 5000 nM | CCN1CCC(Oc2ccc3c(c2)/C(=C(\c2cc(F)cc(F)c2)c2nc4ccccc4[nH]2)C(=O)N3)CC1 [Entry 33, (3Z)-3-[1H-benzimidazol-2-yl(3,5-difluorophenyl)methylidene]-5-[(1-ethylpiperidin-4-yl)oxy]-1,3-dihydro-2H-indol-2-one]
13 | < 50 nM | 500 to 5000 nM | 50 to 500 nM | 500 to 5000 nM | < 50 nM | < 50 nM | < 50 nM | 500 to 5000 nM | COCCN1CCC(Nc2ccc3c(c2)/C(=C(\c2cccc(OC)c2)c2nc4ccccc4[nH]2)C(=O)N3)CC1 [Entry 39, (3Z)-3-{1H-benzimidazol-2-yl[3-(methyloxy)phenyl]methylidene}-5-({1-[2-(methyloxy)ethyl]piperidin-4-yl}amino)-1,3-dihydro-2H-indol-2-one]
14 | < 50 nM | 500 to 5000 nM | 50 to 500 nM | 500 to 5000 nM | < 50 nM | < 50 nM | < 50 nM | 500 to 5000 nM | COCCN1CCC(Nc2ccc3c(c2)/C(=C(\c2cccc(Cl)c2)c2nc4ccccc4[nH]2)C(=O)N3)CC1 [Entry 38, (3Z)-3-[1H-benzimidazol-2-yl(3-chlorophenyl)methylidene]-5-({1-[2-(methyloxy)ethyl]piperidin-4-yl}amino)-1,3-dihydro-2H-indol-2-one]
15 | < 50 nM | 500 to 5000 nM | < 50 nM | 50 to 500 nM | 50 to 500 nM | < 50 nM | < 50 nM | 500 to 5000 nM | CCN1CCC(Nc2ccc3c(c2)/C(=C(\c2ccc(Cl)cc2)c2nc4ccccc4[nH]2)C(=O)N3)CC1 [Entry 45, (3Z)-3-[1H-benzimidazol-2-yl(4-chlorophenyl)methylidene]-5-[(1-ethylpiperidin-4-yl)amino]-1,3-dihydro-2H-indol-2-one]
16 | < 50 nM | 500 to 5000 nM | 50 to 500 nM | 50 to 500 nM |  | < 50 nM | < 50 nM | 500 to 5000 nM | CCN1CCC(Nc2ccc3c(c2)/C(=C(\c2ccc(N)cc2)c2nc4ccccc4[nH]2)C(=O)N3)CC1 [Entry 11, (3Z)-3-[(4-aminophenyl)(1H-benzimidazol-2-yl)methylidene]-5-[(1-ethylpiperidin-4-yl)amino]1,3-dihydro-2H-indol-2-one]
